One data set concerns the target Cytochrome P450 3A4 (Homo sapiens, UniProt P08684). Kind of data set: Inhibition of recombinant CYP3A4 (unknown origin) at 10 uM measured after 30 mins by luciferase reporter gene assay. In kind it is ADME. The following applies: recombinant enzyme, 0.5 h. For orientation: Reporter assays use an easily measured gene product as a stand-in for the process of interest.

The target in data set [1] is T1, Histamine H3 receptor (Homo sapiens, UniProt Q9Y5N1). Kind of data set: Displacement of [3H]UR-PI294 from human SP-FLAG-tagged H3R expressed in HEK293T cells measured after 60 to 120 mins by liquid scintillation counting analysis. In kind it is cell-based.
T1 sequence (Q9Y5N1 whole entry): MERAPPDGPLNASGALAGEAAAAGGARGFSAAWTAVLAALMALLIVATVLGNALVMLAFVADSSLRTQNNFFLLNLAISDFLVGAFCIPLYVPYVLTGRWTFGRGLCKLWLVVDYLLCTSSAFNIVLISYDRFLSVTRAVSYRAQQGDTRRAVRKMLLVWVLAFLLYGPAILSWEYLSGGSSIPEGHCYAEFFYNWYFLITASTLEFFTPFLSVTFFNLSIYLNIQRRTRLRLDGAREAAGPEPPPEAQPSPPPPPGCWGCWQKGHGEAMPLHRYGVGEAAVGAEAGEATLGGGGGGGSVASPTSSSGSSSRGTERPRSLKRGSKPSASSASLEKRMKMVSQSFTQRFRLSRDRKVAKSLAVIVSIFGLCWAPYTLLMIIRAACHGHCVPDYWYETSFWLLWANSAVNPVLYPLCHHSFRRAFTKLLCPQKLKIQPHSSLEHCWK
Another data set has as its target Histamine H1 receptor (Homo sapiens, UniProt P35367). Kind of data set: Displacement of [3H]mepyramine from human H1R expressed in Sf9 cell membranes co-expressing RGS4 measured after 60 mins by scintillation counting analysis. Details: species or system Membrane.
Data set [2] deals with T1, Histamine H3 receptor. Kind of data set: Binding affinity to human H3R.
The next data set has as its target Histamine H4 receptor (Homo sapiens, UniProt Q9H3N8). In words: Binding affinity to human H4R.
A short description of data set [3]: Effect on spontaneous locomotor activity in Wistar rat model of diet induced obesity at 1 to 10 mg/kg/day, ip administered for 27 days. Format: ADME, organism-based. The following applies: in vivo, 648 h, dose 1-10 mg/kg/day, time 27 day.
The subject of data set [4] is Rattus norvegicus. In words: Anorectic activity in Wistar rat model of diet induced obesity assessed as increase in HDL level at 1 mg/kg/day, ip administered for 28 days measured on day 29 by spectrophotometric method. Format: functional, organism-based. The following applies: time 28.0 day.
Data set [5] concerns Rattus norvegicus. Kind of data set: Anorectic activity in Wistar rat model of diet induced obesity assessed as reduction in plasma glucose level at 1 mg/kg/day, ip administered for 28 days measured on day 29 by spectrophotometric method. In kind it is functional, organism-based. The following applies: time 28.0 day.
Data set [6] relates to Rattus norvegicus. Kind of data set: Anorectic activity in Wistar rat model of diet induced obesity assessed as reduction in triglyceride level at 1 to 10 mg/kg/day, ip administered for 28 days measured on day 29 by spectrophotometric method. To be noted: dose 1-10 mg/kg/day, time 28.0 day. Format: functional, organism-based.
Data set [7] has as its system Rattus norvegicus. Kind of data set: Anorectic activity in Wistar rat model of diet induced obesity assessed as increase in HDL level at 10 mg/kg/day, ip administered for 28 days measured on day 29 by spectrophotometric method. In kind it is functional, organism-based. The following applies: time 29.0 day.
Data set [8] concerns Rattus norvegicus. Kind of data set: Anorectic activity in Wistar rat model of diet induced obesity assessed as reduction in body weight at 10 mg/kg/day, ip administered for 28 days. To be noted: time 28.0 day. In kind it is functional, organism-based.
The test system of data set [9] is Rattus norvegicus. In words: Anorectic activity in Wistar rat model of diet induced obesity assessed as reduction in calorie intake at 10 mg/kg/day, ip administered for 28 days. Format: functional, organism-based. To be noted: time 28.0 day.
In data set [10] the test system is Rattus norvegicus. In words: Anorectic activity in Wistar rat model of diet induced obesity assessed as reduction in amount of peritoneal fat at 10 mg/kg/day, ip administered for 28 days. In kind it is functional, organism-based. To be noted: time 28.0 day.
Data set [11] relates to Rattus norvegicus. Kind of data set: Anorectic activity in Wistar rat model of diet induced obesity assessed as reduction in amount of peritoneal fat at 1 mg/kg/day, ip administered for 28 days. In kind it is functional, organism-based. The following applies: time 28.0 day.
Data set [12] has as its system Rattus norvegicus. Kind of data set: Anorectic activity in Wistar rat model of diet induced obesity assessed as reduction in body weight at 1 mg/kg/day, ip administered for 28 days. To be noted: time 28.0 day. Format: functional, organism-based.
Data set [13] deals with Rattus norvegicus. In words: Anorectic activity in Wistar rat model of diet induced obesity assessed as reduction in calorie intake at 1 mg/kg/day, ip administered for 28 days. Format: functional, organism-based. To be noted: time 28.0 day.
Data set [14] has as its system Rattus norvegicus. Kind of data set: Anorectic activity in Wistar rat model of diet induced obesity assessed as reduction in plasma glucose level at 10 mg/kg/day, ip administered for 28 days measured on day 29 by spectrophotometric method. Format: functional, organism-based. The following applies: time 29.0 day.
Data set [15] deals with Rattus norvegicus. In words: Anorectic activity in Wistar rat model of diet induced obesity assessed as reduction in total cholesterol level at 10 mg/kg/day, ip administered for 28 days measured on day 29 by spectrophotometric method. Format: functional, organism-based. To be noted: time 29.0 day.
In data set [16] the test system is Rattus norvegicus. In words: Anorectic activity in Wistar rat model of diet induced obesity assessed as reduction in total cholesterol level at 1 mg/kg/day, ip administered for 28 days measured on day 29 by spectrophotometric method. The following applies: time 28.0 day. Format: functional, organism-based.
Data set [17] in a line: Effect on spontaneous locomotor activity in Wistar rat model of diet induced obesity at 1 mg/kg/day, ip administered for 27 days. In kind it is ADME, organism-based. The following applies: in vivo, 648 h, time 27 day.

The structures appear in SMILES notation. Calls of active or inactive are those of the source. The calls are words filed in the database; no cut-off is given here.

The term Ki denotes a measure of affinity in units of concentration, obtained from inhibition or displacement. Read a low Ki as higher affinity.

Sequence of Histamine H1 receptor (P35367 whole entry): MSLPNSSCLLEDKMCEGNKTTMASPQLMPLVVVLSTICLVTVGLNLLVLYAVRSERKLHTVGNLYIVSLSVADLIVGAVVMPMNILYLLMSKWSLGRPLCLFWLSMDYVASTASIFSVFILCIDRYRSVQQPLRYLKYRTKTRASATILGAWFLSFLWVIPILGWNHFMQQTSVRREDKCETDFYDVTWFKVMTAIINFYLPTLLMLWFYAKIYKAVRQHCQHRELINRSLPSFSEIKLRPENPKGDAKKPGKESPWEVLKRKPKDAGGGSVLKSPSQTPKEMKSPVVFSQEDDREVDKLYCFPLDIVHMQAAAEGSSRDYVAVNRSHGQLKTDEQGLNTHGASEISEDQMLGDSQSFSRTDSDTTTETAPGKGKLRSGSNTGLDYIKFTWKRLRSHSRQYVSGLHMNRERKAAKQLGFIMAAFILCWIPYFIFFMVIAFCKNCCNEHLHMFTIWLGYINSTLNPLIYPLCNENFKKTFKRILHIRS
Sequence of Cytochrome P450 3A4 (P08684 whole entry): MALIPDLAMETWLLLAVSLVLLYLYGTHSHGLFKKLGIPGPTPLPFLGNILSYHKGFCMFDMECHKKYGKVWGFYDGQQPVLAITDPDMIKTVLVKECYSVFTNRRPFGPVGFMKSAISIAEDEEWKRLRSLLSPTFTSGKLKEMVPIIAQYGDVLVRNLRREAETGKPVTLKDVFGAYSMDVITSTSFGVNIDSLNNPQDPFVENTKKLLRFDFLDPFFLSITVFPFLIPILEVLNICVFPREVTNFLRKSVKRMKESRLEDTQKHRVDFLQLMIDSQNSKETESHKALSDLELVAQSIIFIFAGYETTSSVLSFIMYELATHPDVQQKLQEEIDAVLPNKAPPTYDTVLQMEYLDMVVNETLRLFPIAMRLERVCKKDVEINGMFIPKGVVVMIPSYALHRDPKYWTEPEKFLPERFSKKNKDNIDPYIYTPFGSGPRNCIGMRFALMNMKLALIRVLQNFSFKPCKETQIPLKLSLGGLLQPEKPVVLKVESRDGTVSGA
Sequence of Histamine H4 receptor (Q9H3N8 whole entry): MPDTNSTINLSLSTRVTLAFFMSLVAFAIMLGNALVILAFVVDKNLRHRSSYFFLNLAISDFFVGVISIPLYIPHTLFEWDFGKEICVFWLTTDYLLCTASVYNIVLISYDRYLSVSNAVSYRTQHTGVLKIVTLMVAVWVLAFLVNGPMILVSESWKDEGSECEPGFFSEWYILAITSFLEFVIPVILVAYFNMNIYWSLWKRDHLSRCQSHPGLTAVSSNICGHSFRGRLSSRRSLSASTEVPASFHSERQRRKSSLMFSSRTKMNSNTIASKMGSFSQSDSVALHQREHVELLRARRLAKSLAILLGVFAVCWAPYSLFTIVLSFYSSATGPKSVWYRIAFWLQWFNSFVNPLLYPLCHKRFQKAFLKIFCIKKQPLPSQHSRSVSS

Turning to `c1ccc(Oc2ccc(OCCCN3CCN(c4ccncc4)CC3)cc2)cc1`, the “inhibition (INH)” value at Cytochrome P450 3A4 was “Active”. In addition, the inhibitory constant (Ki) worked out at 20.3 nM at Histamine H3 receptor [1] and 4570 nM on Histamine H1 receptor.
The like results for `O=C(c1ccc(OCCCN2CCN(c3ccncc3)CC2)cc1)C1CC1` were, in that order, “Active”, 3.17 nM and above 10000 nM.
As to `O=C(c1ccc(OCCCc2cnc[nH]2)cc1)C1CC1` [CIPROXIFAN], the “inhibition (INH)” value on Cytochrome P450 3A4 is “Active”.
On to `c1ccc(Cc2ccc(OCCCN3CCN(c4ccncc4)CC3)cc2)cc1`, for which, at Cytochrome P450 3A4, the “inhibition (INH)” value is “Active”. Moreover, the inhibitory constant (Ki) amounted to 17.6 nM at Histamine H3 receptor [1] and 4240 nM at Histamine H1 receptor.
Consider `CN(C)[C@@H]1CCN(CCCOc2ccc(-c3ccc(C#N)cc3)cc2F)C1`, for which the Ki on Histamine H3 receptor [2] is 3.98 nM.
In the case of `Clc1cccc(-c2ccc(OCCCN3CCN(c4ccncc4)CC3)cc2)c1`, at Cytochrome P450 3A4, the “inhibition (INH)” value is reported as “Active”. For the same compound, the Ki was 109 nM on Histamine H3 receptor [1] and 1990 nM on Histamine H1 receptor.
For `Clc1ccc(CCCOCCCN2CCCCC2)cc1` [PITOLISANT], the Ki on Histamine H4 receptor was above 100000 nM.
Consider `N#Cc1ccc(-c2ccc(OCCCN3CCN(c4ccncc4)CC3)cc2)cc1`, for which, in [3], the Activity result is “Non-Toxic”. Moreover, the outcome in the data set with Rattus norvegicus [4], with Rattus norvegicus [6], in the data set on Rattus norvegicus [7], in the data set with Rattus norvegicus [8], with Rattus norvegicus [9] and in the data set on Rattus norvegicus [10] was Active. Also, the result in the data set on Rattus norvegicus [11], with Rattus norvegicus [12], in the data set with Rattus norvegicus [13], with Rattus norvegicus [14] and with Rattus norvegicus [15] was Active. Also, the outcome in the data set with Rattus norvegicus [5] was inactive. At Cytochrome P450 3A4, the “inhibition (INH)” value is “Active”. Further, the Ki was 7.86 nM on Histamine H3 receptor [1] and 2900 nM on Histamine H1 receptor.
With `Fc1ccc(-c2ccc(OCCCN3CCN(c4ccncc4)CC3)cc2)cc1`, the “inhibition (INH)” value at Cytochrome P450 3A4 is given as “Active”. In addition, the figures for the Ki on Histamine H3 receptor [1] and at Histamine H1 receptor were 60.7 nM and 3690 nM, respectively.
For `O=C(c1ccc(F)cc1)c1ccc(OCCCN2CCN(c3ccncc3)CC2)cc1`, in that order: “Active”, 5.84 nM and above 10000 nM.
For `c1ccc(Nc2ccc(OCCCN3CCN(c4ccncc4)CC3)cc2)cc1`, in that order: “Active”, 8.43 nM and 4220 nM.
Turning to `O=C(c1ccc(OCCCN2CCC(c3ccncc3)CC2)cc1)C1CC1`, on Cytochrome P450 3A4, the “inhibition (INH)” value is “Active”. The results for the Ki at Histamine H3 receptor [1] and on Histamine H1 receptor were 7.7 nM and above 10000 nM, respectively.
As for `Clc1ccc(-c2ccc(OCCCN3CCN(c4ccncc4)CC3)cc2)cc1`, the “inhibition (INH)” value on Cytochrome P450 3A4 is on record as “Active”. In addition, the inhibition constant Ki worked out at 140 nM at Histamine H3 receptor [1] and 4090 nM on Histamine H1 receptor.
For `c1ccc2cc(OCCCN3CCN(c4ccncc4)CC3)ccc2c1`, in that order: “Active”, 67.2 nM and 7420 nM.
Consider `CN(C)[C@@H]1CCN(CCCOc2ccc(-c3ccc(C#N)cc3)cc2)C1`, for which, on Histamine H3 receptor [2], the Ki was 2 nM.
In the case of `O=C(c1ccc(Cl)cc1)c1ccc(OCCCN2CCN(c3ccncc3)CC2)cc1`, on Cytochrome P450 3A4, the “inhibition (INH)” value was “Active”. Also, the figures for the Ki on Histamine H3 receptor [1] and at Histamine H1 receptor were 23 nM and 6860 nM, respectively.
`Cc1c(C(=O)NN2CCCCC2)nn(-c2ccc(Cl)cc2Cl)c1-c1ccc(Cl)cc1` [RIMONABANT]: the result with Rattus norvegicus [16], in the data set with Rattus norvegicus [4] and with Rattus norvegicus [11] was Active. Also, the Activity entry in [17] was “Non-Toxic”.

The values above are taken from ChEMBL document CHEMBL4732109, “Structural modifications in the distal, regulatory region of histamine H receptor antagonists leading to the identification of a potent anti-obesity agent” (Eur J Med Chem, 2021).
